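Each compound was tested at five concentrations against cells in 96-well plates for 48 hours. TGI denotes the concentration required for complete inhibition of growth.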 Where a SMILES comes first, the peptide text is derived from it.
How the values were obtained:
Assay in all cases: NCI-60 cell line screen, 48 h
[1] = tested on: U251 CNS
[2] = tested on: HOP-92 NSCLC
[3] = tested on: NCI-H460 lung
[4] = tested on: LOX IMVI melanoma
[5] = tested on: RPMI-8226 leukemia
[6] = tested on: OVCAR-3 ovarian
[7] = tested on: A549 NSCLC
[8] = tested on: SF-268 CNS
[9] = tested on: MOLT-4 leukemia
[10] = tested on: M14 melanoma
[11] = tested on: OVCAR-5 ovarian
[12] = tested on: OVCAR-8 ovarian
[13] = tested on: KM12 colon
[14] = tested on: NCI/ADR-RES ovarian
[15] = tested on: MDA-MB-231 breast
[16] = tested on: NCI-H23 lung
[17] = tested on: HCT-15 colon
[18] = tested on: HS 578T breast
[19] = tested on: SK-MEL-5 melanoma
[20] = tested on: COLO 205 colon
[21] = tested on: PC-3 prostate
[22] = tested on: CCRF-CEM leukemia
[23] = tested on: K-562 leukemia
[24] = tested on: UACC-257 melanoma
[25] = tested on: 786-0 renal
[26] = tested on: OVCAR-4 ovarian
[27] = tested on: MCF7 breast
[28] = tested on: SNB-19 CNS
[29] = tested on: UO-31 renal
[30] = tested on: MDA-MB-435
[31] = tested on: BT-549 breast
[32] = tested on: EKVX NSCLC
[33] = tested on: UACC-62 melanoma
[34] = tested on: HOP-62 NSCLC
[35] = tested on: T-47D breast
[36] = tested on: A498 renal
[37] = tested on: SK-MEL-28 melanoma
[38] = tested on: SF-295 CNS
[39] = tested on: HCT-116 colon
[40] = tested on: SF-539 CNS
[41] = tested on: HT29 colon
[42] = tested on: MDA-N
[43] = tested on: NCI-H226 lung
[44] = tested on: HL-60(TB) leukemia
[45] = tested on: SK-OV-3 ovarian
[46] = tested on: ACHN renal
[47] = tested on: IGROV1 ovarian
[48] = tested on: SN12C renal
[49] = tested on: TK-10 renal
[50] = tested on: SK-MEL-2 melanoma
[51] = tested on: DU-145 prostate
[52] = tested on: CAKI-1 renal
[53] = tested on: HCC-2998 colon
[54] = tested on: SR leukemia
[55] = tested on: SW-620 colon
[56] = tested on: SNB-75 CNS
[57] = tested on: MALME-3M melanoma
[58] = tested on: RXF 393 renal
[59] = tested on: NCI-H522 lung

In the case of `CCN1C(=O)c2ccccc2C1(O)c1ccc(Cl)cc1` (stereo not drawn), the TGI [1] was over 100 µM, the TGI [2] was over 100 µM and the TGI [3] was over 100 µM. For the same molecule, the TGI [4] was over 100 µM, the TGI [5] was over 100 µM and the TGI [6] was over 100 µM. It also gave a TGI [7] of over 100 µM, a TGI [8] of over 100 µM and a TGI [9] of over 100 µM. It also gave a TGI [10] of over 100 µM, a TGI [11] of over 100 µM and a TGI [12] of over 100 µM. The TGI [13] was over 100 µM, the TGI [14] was over 100 µM and the TGI [15] was over 100 µM. It also gave a TGI [16] of over 100 µM, a TGI [17] of over 100 µM and a TGI [18] of over 100 µM. It also gave a TGI [19] of over 100 µM, a TGI [20] of over 100 µM and a TGI [21] of 80.6 µM. The TGI [22] was over 100 µM, the TGI [23] was over 100 µM and the TGI [24] was over 100 µM. The TGI [25] was over 100 µM, the TGI [26] was over 100 µM and the TGI [27] was over 100 µM. It also gave a TGI [28] of over 100 µM, a TGI [29] of over 100 µM and a TGI [30] of over 100 µM. The TGI [31] was over 100 µM, the TGI [32] was over 100 µM and the TGI [33] was over 100 µM. The TGI [34] was over 100 µM, the TGI [35] was over 100 µM and the TGI [36] was over 100 µM. The TGI [37] was over 100 µM, the TGI [38] was 63.2 µM and the TGI [39] was over 100 µM. For the same molecule, the TGI [40] was over 100 µM, the TGI [41] was over 100 µM and the TGI [42] was over 100 µM. It also gave a TGI [43] of 74.3 µM, a TGI [44] of over 100 µM and a TGI [45] of over 100 µM. For the same molecule, the TGI [46] was over 100 µM, the TGI [47] was over 100 µM and the TGI [48] was over 100 µM. For the same molecule, the TGI [49] was over 100 µM, the TGI [50] was 83.6 µM and the TGI [51] was over 100 µM. It also gave a TGI [52] of over 100 µM, a TGI [53] of over 100 µM and a TGI [54] of over 100 µM. The TGI [55] was over 100 µM.

Work on `CC(=O)NC(CS)C(=O)NC(CO)C(=O)NC(CO)C(=O)NC(Cc1c[nH]c2ccccc12)C(=O)N1CCCC1C(=O)NC(CO)C(=O)NC(Cc1c[nH]c2ccccc12)C(=O)NC(Cc1c[nH]cn1)C(=O)NC(CO)C(=O)NC(Cc1c[nH]c2ccccc12)C(=O)NCC(=O)NCC(=O)NC(CC(=O)O)C(=O)NC(CCC(N)=O)C(=O)NC(CCCCN)C(=O)NC(Cc1ccccc1)C(=O)NC(CCCNC(=N)N)C(=O)NC(CCCCN)C(N)=O` (stereo not drawn) (Ac-CSSWPSWHSWGGDQKFRK-NH2; configuration not given here) yielded a TGI [1] of over 25 µM, a TGI [2] of over 25 µM and a TGI [56] of over 25 µM. The TGI [3] was over 25 µM, the TGI [4] was over 25 µM and the TGI [5] was over 25 µM. For the same molecule, the TGI [6] was over 25 µM, the TGI [7] was over 25 µM and the TGI [8] was over 25 µM. For the same molecule, the TGI [9] was over 25 µM, the TGI [10] was over 25 µM and the TGI [11] was over 25 µM. It also gave a TGI [12] of over 25 µM, a TGI [13] of over 25 µM and a TGI [14] of over 25 µM. It also gave a TGI [15] of over 25 µM, a TGI [16] of over 25 µM and a TGI [17] of over 25 µM. The TGI [18] was over 25 µM, the TGI [19] was over 25 µM and the TGI [20] was over 25 µM. For the same molecule, the TGI [21] was over 25 µM, the TGI [22] was over 25 µM and the TGI [23] was over 25 µM. The TGI [24] was over 25 µM, the TGI [25] was over 25 µM and the TGI [26] was over 25 µM. It also gave a TGI [57] of over 25 µM, a TGI [27] of over 25 µM and a TGI [58] of over 25 µM. The TGI [28] was over 25 µM, the TGI [29] was over 25 µM and the TGI [30] was over 25 µM. For the same molecule, the TGI [59] was over 25 µM, the TGI [31] was over 25 µM and the TGI [32] was over 25 µM. The TGI [33] was over 25 µM, the TGI [34] was over 25 µM and the TGI [35] was over 25 µM. The TGI [36] was over 25 µM, the TGI [37] was over 25 µM and the TGI [38] was over 25 µM. The TGI [39] was over 25 µM, the TGI [40] was over 25 µM and the TGI [41] was over 25 µM. It also gave a TGI [42] of over 25 µM, a TGI [43] of over 25 µM and a TGI [44] of over 25 µM. The TGI [45] was over 25 µM, the TGI [46] was over 25 µM and the TGI [47] was over 25 µM. For the same molecule, the TGI [48] was over 25 µM, the TGI [49] was over 25 µM and the TGI [50] was over 25 µM. The TGI [51] was over 25 µM, the TGI [52] was over 25 µM and the TGI [54] was over 25 µM. The TGI [55] was over 25 µM.

— PubChem BioAssay (NCI)
